We go through 5 compounds from ChEMBL document CHEMBL6096738, “Optimization of Single Relaxin B-Chain Peptide Leads to the Identification of R2R01, a Potent, Long-Acting RXFP1 Agonist for Cardiovascular and Renal Diseases” (J Med Chem, 2025).

In series [1] the target is T1, Relaxin receptor 1 (Homo sapiens, UniProt Q9HBX9).
T1 sequence (Q9HBX9 whole entry): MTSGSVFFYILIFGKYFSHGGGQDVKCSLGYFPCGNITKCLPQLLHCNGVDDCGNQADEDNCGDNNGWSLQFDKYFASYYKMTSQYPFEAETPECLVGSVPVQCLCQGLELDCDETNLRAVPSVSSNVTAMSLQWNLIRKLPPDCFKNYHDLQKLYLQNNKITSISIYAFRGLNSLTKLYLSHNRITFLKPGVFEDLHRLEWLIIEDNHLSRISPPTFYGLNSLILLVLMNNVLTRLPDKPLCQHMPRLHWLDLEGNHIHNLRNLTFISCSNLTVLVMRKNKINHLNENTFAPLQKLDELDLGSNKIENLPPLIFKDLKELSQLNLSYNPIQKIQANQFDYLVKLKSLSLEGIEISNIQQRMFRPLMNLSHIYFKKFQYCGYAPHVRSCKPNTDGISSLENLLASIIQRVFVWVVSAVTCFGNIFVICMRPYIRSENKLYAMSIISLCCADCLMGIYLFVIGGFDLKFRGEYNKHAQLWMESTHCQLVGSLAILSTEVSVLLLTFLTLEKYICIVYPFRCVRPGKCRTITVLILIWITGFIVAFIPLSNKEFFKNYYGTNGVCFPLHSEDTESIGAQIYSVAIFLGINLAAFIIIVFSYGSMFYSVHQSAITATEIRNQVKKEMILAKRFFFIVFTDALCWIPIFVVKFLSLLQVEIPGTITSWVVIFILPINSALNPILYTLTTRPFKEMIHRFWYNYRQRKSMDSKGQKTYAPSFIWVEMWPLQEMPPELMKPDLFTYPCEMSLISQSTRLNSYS
Description: Agonist activity at human RXFP1 expressed in human OVCAR-5 cells assessed as intracellular cAMP accumulation incubated for 30 mins by HTRF assay. It counts as functional, cell-based. Background: cAMP levels reflect the balance of adenylyl cyclase and phosphodiesterase activity.

Series [2] is described as follows: Induction of mast cell degranulation in human LAD2 cells assessed as beta-hexosaminidase release by measuring 4-methylumbelliferyl N-acetyl-beta-D-glucosaminide hydrolysis incubated for 30 mins by plate reader analysis. Conditions: probe 4-methylumbelliferyl N-acetyl-beta-D-glucosaminide. The format is toxicity, cell-based.
Series [3] has as its target T1, Relaxin receptor 1. Put plainly: Agonist activity at human RXFP1 expressed in 2%HSA treated human OVCAR-5 cells assessed as intracellular cAMP accumulation incubated for 30 mins with 2% HSA pretreated compound by HTRF assay. It counts as functional, cell-based.
Series [4] is described as follows: Induction of mast cell degranulation in human LAD2 cells assessed as beta-hexosaminidase release by measuring maximal efficacy of 4-methylumbelliferyl N-acetyl-beta-D-glucosaminide hydrolysis at 100 uM incubated for 30 mins by plate reader analysis relative to control. Conditions: probe 4-methylumbelliferyl N-acetyl-beta-D-glucosaminide. It counts as toxicity, cell-based.

In series [5] the target is T2, Relaxin receptor 1 (Homo sapiens) (UniProt Q9HBX9).
T2 sequence (whole entry): T1 sequence (Q9HBX9 whole entry)
Description: Agonist activity at human RXFP1 expressed in 2%HSA treated human OVCAR-5 cells assessed as intracellular cAMP accumulation by measuring maximal efficacy incubated for 30 mins with 2% HSA pretreated compound by HTRF assay relative to control. The format is functional, cell-based. Conditions: filed as agonist.

For series [6], the target named is T2, Relaxin receptor 1 (Homo sapiens). Description: Agonist activity at human RXFP1 expressed in human OVCAR-5 cells assessed as intracellular cAMP accumulation by measuring maximal efficacy incubated for 30 mins by HTRF assay relative to control. Conditions: filed as agonist. It counts as functional, cell-based.
A short description of series [7]: Induction of mast cell degranulation in human LAD2 cells assessed as beta-hexosaminidase release by measuring maximal efficacy of 4-methylumbelliferyl N-acetyl-beta-D-glucosaminide hydrolysis at 33 uM incubated for 30 mins by plate reader analysis relative to control. It counts as toxicity, cell-based. Conditions: probe 4-methylumbelliferyl N-acetyl-beta-D-glucosaminide.

Series [8] is described as follows: Half-life in male Sprague-Dawley rat at 1 mg/kg, iv measured after 198 hrs by LC-HRMS analysis. It counts as ADME, organism-based. The following applies: in vivo.

Starred links: 1 amine or outer side, 2 acyl side, 3 side chain; linkers in the order of their positions; H or OH if unused. Non-standard residues stand in square brackets, D forms with d. Residues, ends and D or L forms follow the SMILES beside them. Groups on a side chain read outwards from the residue. *: point of attachment. X2 = CCCCCCCCCCCCCCCC(=O)N[C@@H](CCC(=O)N[C@@H](CCC(=O)N[C@@H](CCC(=O)NCCCOCCOCCOCCCNC(=O)CCC(=O)NCCCOCCOCCOCCCNC(=O)CCC(=O)NCCCOCCOCCOCCCN*)C(=O)O)C(=O)O)C(=O)O; γGlu = O=C(O)[C@H](CCC(=O)[*:2])N[*:1]; Palmitoyl = CCCCCCCCCCCCCCCC(=O)*; Suc = O=C(CCC(=O)[*:2])[*:1]; αMeK = C[C@](N)(CCCCN)C(=O)O; Nle = CCCC[C@H](N)C(=O)O; AEEA = NCCOCCOCC(=O)O; Aib = CC(C)(N)C(=O)O

The EC50 is the concentration needed to bring the measured effect to its halfway point. In general, Emax refers to the maximal effect, on the per cent scale that the assay sets. The half-life is how long it takes for the measured level to halve. High values mean slow decline, low ones rapid decline.

`CCCCCCCCCCCCCCCC(=O)N[C@H](CCC(=O)N[C@H](CCC(=O)N[C@H](CCC(=O)NCCCOCCOCCOCCCNC(=O)CCC(=O)NCCCOCCOCCOCCCNC(=O)CCC(=O)NCCCOCCOCCOCCCNC(=O)CCC(=O)NCCCC[C@H](NC(=O)[C@H](CO)NC(=O)[C@H](Cc1c[nH]c2ccccc12)NC(=O)[C@@H](NC(=O)[C@H](CO)NC(=O)[C@H](CCC(N)=O)NC(=O)CNC(=O)[C@H](CCC(=O)O)NC(=O)C(C)(C)NC(=O)C(C)(C)NC(=O)[C@@H](NC(=O)[C@H](CCCCNC(C)=O)NC(=O)[C@H](C)NC(=O)[C@H](CCCNC(=N)N)NC(=O)[C@@H](NC(=O)[C@H](CCCCN)NC(=O)[C@H](CCC(=O)O)NC(=O)[C@H](CCCNC(=N)N)NC(=O)CNC(=O)[C@H](CCC(=O)O)NC(=O)[C@H](CC(C)C)NC(C)=O)C(C)C)[C@@H](C)CC)[C@H](C)O)C(=O)N[C@@H](CCCNC(=N)N)C(=O)N[C@@H](CCCCN)C(=O)N[C@@H](CCCCNC(C)=O)C(N)=O)C(=O)O)C(=O)O)C(=O)O`: the EC50 in series [1] was determined as 0.38 nM; in series [3], 90 nM. Besides, the EC50 at 30 min in series [2] was determined as 13400 nM. For the same compound, the Emax at 0.5 h, 100 µM in series [4] was 24%. The figures for the Emax in series [5] and in series [6] were 92% and 94%, respectively.

For `CCCCCCCCCCCCCCCC(=O)N[C@@H](CCC(=O)N[C@@H](CCC(=O)N[C@@H](CCC(=O)NCCCOCCOCCOCCCNC(=O)CCC(=O)NCCCOCCOCCOCCCNC(=O)CCC(=O)NCCCOCCOCCOCCCNC(=O)CCC(=O)NCCCC[C@H](NC(=O)[C@@H](NC(=O)[C@H](CCCCNC(C)=O)NC(=O)[C@H](C)NC(=O)[C@H](CCCNC(=N)N)NC(=O)[C@@H](NC(=O)[C@H](CCCCN)NC(=O)[C@H](CCC(=O)O)NC(=O)[C@H](CCCNC(=N)N)NC(=O)CNC(=O)[C@H](CCC(=O)O)NC(=O)[C@H](CC(C)C)NC(C)=O)C(C)C)[C@@H](C)CC)C(=O)NC(C)(C)C(=O)N[C@@H](CCC(=O)O)C(=O)NCC(=O)N[C@@H](CCC(N)=O)C(=O)N[C@@H](CO)C(=O)N[C@H](C(=O)N[C@@H](Cc1c[nH]c2ccccc12)C(=O)N[C@@H](CO)C(=O)NC(C)(C)C(=O)N[C@@H](CCCNC(=N)N)C(=O)N[C@@H](CCCCN)C(=O)N[C@@H](CCCCNC(C)=O)C(N)=O)[C@@H](C)O)C(=O)O)C(=O)O)C(=O)O` (Ac-LEGREKVRAK(Ac)IK([Suc-X2])[Aib]EGQSTWS[Aib]RKK(Ac)-NH2), the results for the EC50 in series [1] and in series [3] were 0.21 nM and 80 nM, respectively. Besides, in series [2], the EC50 at 30 min was found to be 13600 nM. Moreover, in series [4], the Emax at 0.5 h, 100 µM worked out at 11%. Further, the Emax was found to be 90% in series [5] and 87% in series [6].

As to `CCCCCCCCCCCCCCCC(=O)N[C@@H](CCC(=O)N[C@@H](CCC(=O)N[C@@H](CCC(=O)NCCCOCCOCCOCCCNC(=O)CCC(=O)NCCCOCCOCCOCCCNC(=O)CCC(=O)NCCCOCCOCCOCCCNC(=O)CCC(=O)NCCCC[C@H](NC(=O)CNC(=O)[C@H](CCC(=O)O)NC(=O)C(C)(C)NC(=O)C(C)(C)NC(=O)[C@@H](NC(=O)[C@H](CCCCNC(C)=O)NC(=O)[C@H](C)NC(=O)[C@H](CCCNC(=N)N)NC(=O)[C@@H](NC(=O)[C@H](CCCCN)NC(=O)[C@H](CCC(=O)O)NC(=O)[C@H](CCCNC(=N)N)NC(=O)CNC(=O)[C@H](CCC(=O)O)NC(=O)[C@H](CC(C)C)NC(C)=O)C(C)C)[C@@H](C)CC)C(=O)N[C@@H](CO)C(=O)N[C@H](C(=O)N[C@@H](Cc1c[nH]c2ccccc12)C(=O)N[C@@H](CO)C(=O)NC(C)(C)C(=O)N[C@@H](CCCNC(=N)N)C(=O)N[C@@H](CCCCN)C(=O)N[C@@H](CCCCNC(C)=O)C(N)=O)[C@@H](C)O)C(=O)O)C(=O)O)C(=O)O` (Ac-LEGREKVRAK(Ac)I[Aib][Aib]EGK([Suc-X2])STWS[Aib]RKK(Ac)-NH2), the EC50 in series [1] was found to be 1.35 nM; in series [3], 105 nM. Moreover, in series [2], the EC50 at 30 min stood at 5900 nM. Also, the Emax at 0.5 h, 33 µM in series [7] is 67.5%. Further, the Emax in series [5] was 90%; in series [6] it was 98%.

Turning to `CCCCCCCCCCCCCCCC(=O)N[C@@H](CCC(=O)N[C@@H](CCC(=O)N[C@@H](CCC(=O)NCCCOCCOCCOCCCNC(=O)CCC(=O)NCCCOCCOCCOCCCNC(=O)CCC(=O)NCCCOCCOCCOCCCNC(=O)CCC(=O)NCCCC[C@H](NC(=O)[C@H](CCC(N)=O)NC(=O)CNC(=O)[C@H](CCC(=O)O)NC(=O)C(C)(C)NC(=O)C(C)(C)NC(=O)[C@@H](NC(=O)[C@H](CCCCNC(C)=O)NC(=O)[C@H](C)NC(=O)[C@H](CCCNC(=N)N)NC(=O)[C@@H](NC(=O)[C@H](CCCCN)NC(=O)[C@H](CCC(=O)O)NC(=O)[C@H](CCCNC(=N)N)NC(=O)CNC(=O)[C@H](CCC(=O)O)NC(=O)[C@H](CC(C)C)NC(C)=O)C(C)C)[C@@H](C)CC)C(=O)N[C@H](C(=O)N[C@@H](Cc1c[nH]c2ccccc12)C(=O)N[C@@H](CO)C(=O)NC(C)(C)C(=O)N[C@@H](CCCNC(=N)N)C(=O)N[C@@H](CCCCN)C(=O)N[C@@H](CCCCNC(C)=O)C(N)=O)[C@@H](C)O)C(=O)O)C(=O)O)C(=O)O` (Ac-LEGREKVRAK(Ac)I[Aib][Aib]EGQK([Suc-X2])TWS[Aib]RKK(Ac)-NH2), the concentration giving a half-maximal response (EC50) in series [1] was 25 nM; in series [3] it was over 2000 nM. For the same compound, the half-maximal effective concentration (EC50) at 30 min in series [2] worked out at 12800 nM. The Emax at 0.5 h, 100 µM in series [4] was 32%. In addition, the Emax in series [6] was found to be 90%.

As for `CCCCCCCCCCCCCCCC(=O)N[C@@H](CCC(=O)N[C@@H](CCC(=O)N[C@@H](CCC(=O)NCCOCCOCC(=O)NCCOCCOCC(=O)NCCOCCOCC(=O)NCCOCCOCC(=O)NCCCC[C@H](NC(=O)[C@H](CCCCNC(C)=O)NC(=O)[C@H](C)NC(=O)[C@H](CCCNC(=N)N)NC(=O)[C@](C)(CCCCN)NC(=O)[C@H](CO)NC(=O)[C@H](Cc1ccccc1)NC(=O)[C@@H](NC(=O)[C@H](CO)NC(=O)[C@H](CCCC)NC(=O)CNC(=O)[C@H](CCC(=O)O)NC(=O)C(C)(C)NC(=O)C(C)(C)NC(=O)[C@@H](NC(=O)[C@H](CCCCNC(C)=O)NC(=O)[C@H](C)NC(=O)[C@H](CCCNC(=N)N)NC(=O)[C@@H](NC(=O)[C@H](CCCCN)NC(=O)[C@H](CCC(=O)O)NC(=O)[C@H](CCCNC(=N)N)NC(=O)CNC(=O)[C@H](CCC(=O)O)NC(=O)[C@H](CC(C)C)NC(C)=O)C(C)C)[C@@H](C)CC)[C@@H](C)O)C(N)=O)C(=O)O)C(=O)O)C(=O)O` (Ac-LEGREKVRAK(Ac)I[Aib][Aib]EG[Nle]STFS[αMeK]RAK(Ac)K([AEEA-AEEA-AEEA-AEEA-γGlu-γGlu-γGlu-Palmitoyl])-NH2), the half-life in series [8] is 7.3 h. Moreover, the figures for the concentration giving a half-maximal response (EC50) in series [1] and in series [3] were 0.27 nM and 20.1 nM, respectively. In series [2], the half-maximal effective concentration (EC50) at 30 min was 3000 nM. For the same compound, the Emax at 0.5 h, 33 µM in series [7] came to 58%. The maximal effect (Emax) in series [5] is 96%; in series [6], 89%.
